System: Hep-G2 cells
Assay: Inhibition of cell proliferation of Hep-G2 cells (intracellular ATP, CellTiterGlo)
Type: cell-based
Conditions: Homo sapiens, HepG2, 72 hours incubation, ATP content, read-out: IC 50 (μM)/HEP G2
Experimental: The antitumoral activity of products 1 to 10 was determined by measuring the inhibition of cell proliferation of Hep-G2 cells. The cells are subcultured in a cell culture medium at a concentration of 1000 cells per well, and incubated for 4 hours at 37° C. and 5% CO2.
Medium used for the Hep-G2 and HCT-116 cell culture: Dubelcco's modified Eagle's medium/Ham mixture F12 (Gibco); NEAA (10%; nonessential amino acids, Gibco); sodium pyruvate (1%, Gibco); L-glutamine (1%, Gibco); fetal calf serum (5%; PAA).
After 4 hours, the test products dissolved in a DMSO/cell culture medium mixture are added at various concentrations and the resulting mixtures are incubated for 72 hours at 37° C. and 5% CO2. The intracellular ATP content was measured using the CellTiterGlo test reagent (Promega).

Compound | IC50
CO[C@@H](C(=O)NC1Cc2ccccc2CN(C)C1=O)[C@H](O)[C@@H](O)[C@H](O)/C=C/C(C)(C)C (stereo partly drawn) [Ex 1, N-(2-Methyl-3-oxo-2,3,4,5-tetrahydro-1H-2-benzazepin-4-yl)-(E)-(2R,3R,4S,5R)-3,4,5-trihydroxy-2-methoxy-8,8-dimethylnon-6-enamide] | 0.17 µM
CO[C@@H](C(=O)NC1Cc2ccccc2NC1=O)[C@H](O)[C@@H](O)[C@H](O)/C=C/C(C)(C)C (stereo partly drawn) [Ex 7, N-(2-oxo-1,2,3,4-tetrahydroquinolin-3-yl)-(E)-(2R,3R,4S,5R)-3,4,5-trihydroxy-2-methoxy-8,8-dimethylnon-6-enamide] | 1.11 µM
COC(=O)C1CC(NC(=O)[C@H](OC)[C@H](O)[C@@H](O)[C@H](O)/C=C/C(C)(C)C)C(=O)N1 (stereo partly drawn) [Ex 5, Methyl 5-oxo-4-((E)-(2R,3R,4S,5R)-3,4,5-tri-hydroxy-2-methoxy-8,8-dimethylnon-6-enoylamino)pyrrolidine-2-carboxylate] | 26.7 µM
CO[C@@H](C(=O)NC1CN(c2ccccc2)C1=O)[C@H](O)[C@@H](O)[C@H](O)/C=C/C(C)(C)C (stereo partly drawn) [Ex 3, N-(2-Oxo-1-phenylazetidin-3-yl)-(E)-(2R,3R,4S,5R)-3,4,5-trihydroxy-2-methoxy-8,8-dimethylnon-6-enamide] | 0.48 µM
CO[C@@H](C(=O)NC1CCNC1=O)[C@H](O)[C@@H](O)[C@H](O)/C=C/C(C)(C)C (stereo partly drawn) [Ex 4, N-(2-oxopyrrolidin-3-yl)-(E)-(2R,3R,4S,5R)-3,4,5-trihydroxy-2-methoxy-8,8-dimethylnon-6-enamide] | 3.1 µM
CO[C@@H](C(=O)NC1CSCCNC1=O)[C@H](O)[C@@H](O)[C@H](O)/C=C/C(C)(C)C (stereo partly drawn) [Ex 8, N-(5-oxoperhydro-1,4-thiazepin-6-yl)-(E)-(2R,3R,4S,5R)-3,4,5-trihydroxy-2-methoxy-8,8-dimethylnon-6-enamide] | 0.83 µM
CO[C@@H](C(=O)N[C@H]1CCCCN(Cc2ccc(-c3ccccc3)cc2)C1=O)[C@H](O)[C@@H](O)[C@H](O)C=NOCc1ccccc1 (racemic) [Ex 10, N—[(S)-1-(biphenyl-4-ylmethyl)-2-oxoperhydro-azepin-3-yl](2R,3R,4S,5S)-6-benzyloxyimino-3,4,5-trihydroxy-2-methoxyhexylamide] | 18.3 µM

More lines, now with the values ahead:

IC50 | Compound
3.6 µM | CO[C@@H](C(=O)N[C@H]1Cc2ccccc2[C@H]2CCCCN2C1=O)[C@H](O)[C@@H](O)[C@H](O)/C=C/C(C)(C)C [Ex 9, N-((7S,12bR)-6-oxo-1,2,3,4,6,7,8,12b-octa-hydropyrido[2,1-a][2]benzazepin-7-yl)-(E)-(2R,3R,4S,5R)-3,4,5-trihydroxy-2-methoxy-8,8-dimethylnon-6-enamide]
1.3 µM | CO[C@@H](C(=O)N[C@H]1CCCCN(Cc2ccc(-c3ccccc3)cc2)C1=O)[C@H](O)[C@@H](O)[C@H](O)/C=C/C(C)(C)C [Ex 2, N—[(S)-1-(biphenyl-4-ylmethyl)-2-oxoperhydroazepin-3-yl]-(E)-(2R,3R,4S,5R)-3,4,5-trihydroxy-2-methoxy-8,8-dimethylnon-6-enamide]
1.19 µM | CO[C@@H](C(=O)NC1CCCNC1=O)[C@H](O)[C@@H](O)[C@H](O)/C=C/C(C)(C)C (stereo partly drawn) [Ex 6, N-(2-oxopiperidin-3-yl)-(E)-(2R,3R,4S,5R)-3,4,5-trihydroxy-2-methoxy-8,8-dimethylnon-6-enamide]
7 µM | CO[C@@H](C(=O)NC1CCCCNC1=O)[C@H](O)[C@@H](O)[C@H](O)/C=C/C(C)C (some centres unmarked) [Bengamide E, reference compound]

From patent publication US7550453B2, “2-alkoxy-3,4,5-trihydroxy-alkylamides, preparation thereof, compositions containing them and use thereof” (Aventis Pharma SA, priority 2004, dated 2009)
